Assay results from patent publication US12369582B2, “Pyridyloxyacetic acid compound and use of same” (SUMITOMO CHEMICAL COMPANY, LIMITED, priority 2019, dated 2025).

Test system: Phytophthora capsici
Assay: Titer plate growth inhibition test on Phytophthora capsici zoospores in potato dextrose broth
Assay type: cell-based
Conditions: final concentration 100 ppm; cultured at 27° C. for 3 days; absorbance at 600 nm vs non-treated section
Procedure: Next, test examples are shown. A non-treated in Test Example 1 means a section in which the same operation as in a treated section is performed except that Compound A is not used. After dispensing 1 μL of a dimethyl sulfoxide solution containing a predetermined concentration of Compound A into wells of a titer plate (96 wells), 150 μL of a potato dextrose broth containing zoospores of Phytophthora capsici was dispensed, and the mixture was prepared so as to have a final concentration of Compound A of 100 ppm and defined as a treated section. In addition, a non-treated section was prepared in other wells. The plate was cultured at 27° C. for 3 days to proliferate Phytophthora capsici […], and then the absorbance at 600 nm of each well of the titer plate was measured and defined as the growth degree of Phytophthora capsici. Based on the growth degree, the efficacy was calculated using “Formula 1”. Efficacy(%)=100×(X−Y)/X “Formula 1” • X: Growth degree of bacteria in non-treated section • Y: Growth degree of bacteria in treated section A test was performed according to Test Example 1 using sodium salt monohydrate of Compound A in place of Compound A. As a result, the efficacy was 90%. A test was performed according to Test Example 1 using Compound B in place of Compound A. As a result, the efficacy was 64%.

CCOC(=O)COc1ncccc1Oc1ccc(F)cc1Cl [Compound B, 2-{[3-(2-chloro-4-fluorophenoxy)pyridin-2-yl]oxy}acetic acid ethyl ester]
Efficacy: 64%

O=C(O)COc1ncccc1Oc1ccc(F)cc1Cl [Compound A, 2-{[3-(2-Chloro-4-fluorophenoxy)pyridin-2-yl]oxy}acetic acid]
Efficacy: 100%
